This note sets out measurements from ChEMBL document CHEMBL2010668 (Bioorg Med Chem Lett, 2012).

One series concerns the target T1, Tyrosinase (Agaricus bisporus, UniProt O42713).
T1 sequence (O42713 whole entry): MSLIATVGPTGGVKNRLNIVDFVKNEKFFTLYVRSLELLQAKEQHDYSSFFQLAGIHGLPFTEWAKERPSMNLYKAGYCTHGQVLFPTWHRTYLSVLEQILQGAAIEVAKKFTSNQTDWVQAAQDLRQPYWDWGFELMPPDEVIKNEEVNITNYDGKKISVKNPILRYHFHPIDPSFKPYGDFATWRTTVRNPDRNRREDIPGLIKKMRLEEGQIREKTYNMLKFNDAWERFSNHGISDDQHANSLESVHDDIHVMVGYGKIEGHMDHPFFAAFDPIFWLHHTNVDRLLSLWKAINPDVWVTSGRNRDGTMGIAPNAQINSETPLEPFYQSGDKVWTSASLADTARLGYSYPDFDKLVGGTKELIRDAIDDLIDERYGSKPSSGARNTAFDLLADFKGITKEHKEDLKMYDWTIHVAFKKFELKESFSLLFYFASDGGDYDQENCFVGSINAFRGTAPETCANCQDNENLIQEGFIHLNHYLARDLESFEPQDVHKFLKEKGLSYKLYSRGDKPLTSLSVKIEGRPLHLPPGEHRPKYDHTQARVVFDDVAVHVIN
Nature of the series: Inhibition of mushroom tyrosinase.

The nature of another series: cells. The settings on record: Mus musculus, Melan-a.
Series [1] is described as follows: Cytotoxicity against mouse Melan-a cells assessed as cell survival at 100 uM. Type of series: cell-based. The settings on record: read-out: Survival.
Series [2] is described as follows: Cytotoxicity against mouse Melan-a cells assessed as cell survival at 80 uM. Type of series: cell-based. The settings on record: read-out: Survival.
A short description of series [3]: Cytotoxicity against mouse Melan-a cells at 46.64 uM. Type of series: cell-based.
Series [4] in a line: Cytotoxicity against mouse Melan-a cells assessed as cell survival at 50 uM. It counts as cell-based. The settings on record: read-out: Survival.

Description for cells: Depigmenting activity in mouse Melan-a cells assessed as melanin production

Turning to `O=C(/C=C/c1ccc2c(c1)OCO2)OC(=O)/C=C/c1ccc2c(c1)OCO2`, the IC50 on Tyrosinase and in the series “cells” was greater than 100 µM in each case. In series [1], the viability at 100 µM was determined as 97.1%.

In the case of `O=C(/C=C/c1ccc2c(c1)OCO2)Oc1coc(CO)cc1=O`, the viability at 80 µM in series [2] was 98.9%. In addition, the half-maximal inhibitory concentration (IC50) (commonly the concentration needed to halve the response being measured) was greater than 200 µM against Tyrosinase and 46.6 µM in “cells”. Besides, the Activity entry in series [3] is listed as “Non-toxic”.

For the molecule `O=C(/C=C/c1ccc2c(c1)OCO2)OCc1cc(=O)c(O)co1`, the results for the IC50 against Tyrosinase and in “cells” were 1.53 µM and greater than 100 µM, respectively. In addition, the viability at 100 µM in series [1] came out at 97.1%.

`O=C(/C=C/c1ccc2c(c1)OCO2)OCc1cc(=O)c(OCc2cc(=O)c(O)co2)co1`: the IC50 against Tyrosinase was greater than 100 µM; in “cells”, 23.5 µM. The viability at 50 µM in series [4] is 95.9%.
